pIC50: −log10 of the molar value.
How the values were obtained:
MLLT1 = biological target: T1, MLLT1 (Homo sapiens, UniProt Q03111); assay: MLLT1 degradation assay in MV4-11 cells (JESS chemiluminescent detection), three concentrations, 24 h; assay type: cell-based; details: with respect to DMSO control
T1 construct: host or cells: MV4-11
T1 sequence (Q03111 1-559): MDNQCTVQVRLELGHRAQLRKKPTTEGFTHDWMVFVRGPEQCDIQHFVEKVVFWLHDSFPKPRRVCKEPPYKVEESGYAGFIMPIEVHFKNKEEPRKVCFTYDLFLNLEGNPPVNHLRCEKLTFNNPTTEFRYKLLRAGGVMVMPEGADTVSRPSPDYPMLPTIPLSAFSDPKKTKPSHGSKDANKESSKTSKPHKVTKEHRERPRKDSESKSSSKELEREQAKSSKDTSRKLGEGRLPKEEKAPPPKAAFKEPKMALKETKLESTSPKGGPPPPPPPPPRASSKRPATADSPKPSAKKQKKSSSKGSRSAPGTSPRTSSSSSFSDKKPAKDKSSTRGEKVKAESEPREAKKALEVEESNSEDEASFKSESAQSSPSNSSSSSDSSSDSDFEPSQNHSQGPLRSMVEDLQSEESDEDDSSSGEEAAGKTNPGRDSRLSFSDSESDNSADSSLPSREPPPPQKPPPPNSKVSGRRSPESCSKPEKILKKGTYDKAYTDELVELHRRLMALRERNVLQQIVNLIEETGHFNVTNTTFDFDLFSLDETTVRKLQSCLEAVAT
How it was run: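 MV4-11 cells treated 24 h at 37° C, 5% CO2 with 1000, 100 and 10 nM compound (0.1% DMSO final). MLLT1 quantified by automated capillary chemiluminescent immunodetection; band peak area expressed as % degradation relative to DMSO control.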

MV4-11 cells = assay: MV4-11 cellular proliferative assay, Assay Format B (CTG 2.0, 168 h); assay type: cell-based; details: Homo sapiens, 168 h (7 days), CTG 2.0, read-out: IC50 (MV4-11 cellular proliferative assay, Assay format B)
How it was run: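 MV4-11 cells seeded overnight in IMDM + 10% FBS, then exposed to 10-point, 3-fold dilutions from 1 uM or 100 nM top concentration (0.3% DMSO final) for 168 h at 37 °C. CTG 2.0 luminescence read; % viability vs DMSO control fitted by four-parameter logistic regression.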

Structure (SMILES) | MLLT1% Degradation @ 0.01 μM (MLLT1) | MLLT1% Degradation @ 0.1 μM (MLLT1) | MLLT1% Degradation @ 1 μM (MLLT1) | pIC50 (MV4-11 cells)
CN1CCC[C@@H]1c1cc2cnc(NC(=O)c3ccc(C4CCN(C(=O)CC5CCN(c6cccc7c6CN(C6CCC(=O)NC6=O)C7=O)CC5)CC4)cc3)cc2[nH]1 (stereo partly drawn) [Example 107, 4-(1-(2-(1-(2-(2,6-dioxopiperidin-3-yl)-1-oxoisoindolin-4-yl)piperidin-4-yl)acetyl)piperidin-4-yl)-N-(2-((R)-1-methylpyrrolidin-2-yl)-1H-pyrrolo[3,2-c]pyridin-6-yl)benzamide] | B (Category B: 50% ≤ B < 75% degradation) | A (Category A: A ≥ 75% degradation) | A (Category A: A ≥ 75% degradation) | ≥ 7.00
C[C@@H]1CN(CC2CCN(c3cccc4c3CN(C3CCC(=O)NC3=O)C4=O)CC2)CCN1c1ccc(C(=O)Nc2cc3[nH]c([C@H]4CCCN4C)cc3cn2)cc1 (relative stereo) [Example 135, 4-((R)-4-((1-(2-((rel-S)-2,6-dioxopiperidin-3-yl)-1-oxoisoindolin-4-yl)piperidin-4-yl)methyl)-2-methylpiperazin-1-yl)-N-(2-((R)-1-methylpyrrolidin-2-yl)-1H-pyrrolo[3,2-c]pyridin-6-yl)benzamide] | A (Category A: A ≥ 75% degradation) | A (Category A: A ≥ 75% degradation) | A (Category A: A ≥ 75% degradation) | ≥ 7.00
CN1CCC[C@@H]1c1cc2cnc(NC(=O)c3ccc(N4CCN(Cc5ccc(-c6cccc7c6CN(C6CCC(=O)NC6=O)C7=O)cc5)CC4)cc3)cc2[nH]1 (stereo partly drawn) [Example 98, 4-(4-(4-(2-(2,6-dioxopiperidin-3-yl)-1-oxoisoindolin-4-yl)benzyl)piperazin-1-yl)-N-(2-((R)-1-methylpyrrolidin-2-yl)-1H-pyrrolo[3,2-c]pyridin-6-yl)benzamide] | A (Category A: A ≥ 75% degradation) | A (Category A: A ≥ 75% degradation) | A (Category A: A ≥ 75% degradation) | ≥ 7.00
CN1CCC[C@@H]1c1cc2cnc(NC(=O)c3ccc(OCC4CCN(c5cccc6c5CN(C5CCC(=O)NC5=O)C6=O)CC4)cc3)cc2[nH]1 (stereo partly drawn) [Example 159, 4-((1-(2-(2,6-dioxopiperidin-3-yl)-1-oxoisoindolin-4-yl)piperidin-4-yl)methoxy)-N-(2-((R)-1-methylpyrrolidin-2-yl)-1H-pyrrolo[3,2-c]pyridin-6-yl)benzamide] | A (Category A: A ≥ 75% degradation) | A (Category A: A ≥ 75% degradation) | A (Category A: A ≥ 75% degradation) | ≥ 7.00
CN1CCC[C@@H]1c1cc2cnc(NC(=O)c3ccc(N4CCC(CC#Cc5cccc6c5CN(C5CCC(=O)NC5=O)C6=O)CC4)nc3)cc2[nH]1 (stereo partly drawn) [Example 16, 6-(4-(3-(2-(2,6-dioxopiperidin-3-yl)-1-oxoisoindolin-4-yl)prop-2-yn-1-yl)piperidin-1-yl)-N-(2-((R)-1-methylpyrrolidin-2-yl)-1H-pyrrolo[3,2-c]pyridin-6-yl)nicotinamide] | A (Category A: A ≥ 75% degradation) | A (Category A: A ≥ 75% degradation) | B (Category B: 50% ≤ B < 75% degradation) | ≥ 7.00
CN1CCC[C@@H]1c1[nH]c2cc(NC(=O)c3ccc(OCCC4CCN(c5cccc6c5CN(C5CCC(=O)NC5=O)C6=O)CC4)cc3)ncc2c1Cl (mixture of isomers) [Example 160, N-(3-chloro-2-((R)-1-methylpyrrolidin-2-yl)-1H-pyrrolo[3,2-c]pyridin-6-yl)-4-(2-(1-(2-(2,6-dioxopiperidin-3-yl)-1-oxoisoindolin-4-yl)piperidin-4-yl)ethoxy)benzamide] | A (Category A: A ≥ 75% degradation) | A (Category A: A ≥ 75% degradation) | A (Category A: A ≥ 75% degradation) | ≥ 7.00
CN1CCC[C@@H]1c1cc2cnc(NC(=O)c3ccc(CCCC#Cc4cccc5c4CN(C4CCC(=O)NC4=O)C5=O)cn3)cc2[nH]1 (stereo partly drawn) [Example 197, 5-(5-(2-(2,6-dioxopiperidin-3-yl)-1-oxoisoindolin-4-yl)pent-4-yn-1-yl)-N-(2-((R)-1-methylpyrrolidin-2-yl)-1H-pyrrolo[3,2-c]pyridin-6-yl)picolinamide] | A (Category A: A ≥ 75% degradation) | A (Category A: A ≥ 75% degradation) | A (Category A: A ≥ 75% degradation) | ≥ 7.00
CN1CCC[C@@H]1c1cc2cnc(NC(=O)c3ccc(CCCC4CCN(c5cccc6c5CN(C5CCC(=O)NC5=O)C6=O)CC4)cc3)cc2[nH]1 (mixture of isomers) [Example 76, 4-(3-(1-(2-(2,6-dioxopiperidin-3-yl)-1-oxoisoindolin-4-yl)piperidin-4-yl)propyl)-N-(2-((R)-1-methylpyrrolidin-2-yl)-1H-pyrrolo[3,2-c]pyridin-6-yl)benzamide] | A (Category A: A ≥ 75% degradation) | A (Category A: A ≥ 75% degradation) | A (Category A: A ≥ 75% degradation) | ≥ 7.00
CN1CCC[C@@H]1c1cc2cnc(NC(=O)c3ccc(N4CCC(C5CCN(c6cccc7c6CN(C6CCC(=O)NC6=O)C7=O)CC5)CC4)nc3)cc2[nH]1 (stereo partly drawn) [Example 75, 6-(1′-(2-(2,6-dioxopiperidin-3-yl)-1-oxoisoindolin-4-yl)-[4,4′-bipiperidin]-1-yl)-N-(2-((R)-1-methylpyrrolidin-2-yl)-1H-pyrrolo[3,2-c]pyridin-6-yl)nicotinamide] | A (Category A: A ≥ 75% degradation) | A (Category A: A ≥ 75% degradation) | A (Category A: A ≥ 75% degradation) | ≥ 7.00
CN1CCC[C@@H]1c1cc2cnc(NC(=O)c3ccc(-c4cnn(CCCC5CCN(c6cccc7c6C(=O)N(C6CCC(=O)NC6=O)C7=O)CC5)c4)cn3)cc2[nH]1 (stereo partly drawn) [Example 211, 5-(1-(3-(1-(2-(2,6-dioxopiperidin-3-yl)-1,3-dioxoisoindolin-4-yl)piperidin-4-yl)propyl)-1H-pyrazol-4-yl)-N-(2-((R)-1-methylpyrrolidin-2-yl)-1H-pyrrolo[3,2-c]pyridin-6-yl)picolinamide] | A (Category A: A ≥ 75% degradation) | A (Category A: A ≥ 75% degradation) | A (Category A: A ≥ 75% degradation) | ≥ 7.00
